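Five concentrations, 48 hours, 96-well plates. The concentration for 50% growth inhibition is given as GI50.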 The source made the active and inactive calls. Cut-off read from the data, not from the text of the source: active = GI50 up to about 1.1 µM and inactive = higher.
Tests used:
Test in all cases: NCI-60 cell line screen, 48 h
HCC 2998 = test system: HCC 2998
HCT-116 = test system: HCT-116
HCT-15 = test system: HCT-15
LOX IMVI = test system: LOX IMVI
M14 = test system: M14
OVCAR-4 = test system: OVCAR-4
OVCAR-8 = test system: OVCAR-8
RPMI-8226 = test system: RPMI-8226
RXF 393 = test system: RXF 393
SF-268 = test system: SF-268
SF-539 = test system: SF-539
SK-MEL-5 = test system: SK-MEL-5
SK-OV-3 = test system: SK-OV-3
SR = test system: SR
DU-145 = test system: DU-145
MDA-MB-435 = test system: MDA-MB-435
Malme-3M = test system: Malme-3M
OVCAR-3 = test system: OVCAR-3
PC-3 = test system: PC-3
BT-549 = test system: BT-549

| SMILES | GI50 (HCC 2998) | GI50 (HCT-116) | GI50 (HCT-15) [µM] | GI50 (LOX IMVI) | GI50 (M14) | GI50 (OVCAR-4) | GI50 (OVCAR-8) | GI50 (RPMI-8226) | GI50 (RXF 393) | GI50 (SF-268) | GI50 (SF-539) | GI50 (SK-MEL-5) | GI50 (SK-OV-3) | GI50 (SR) | GI50 (DU-145) | GI50 (MDA-MB-435) | GI50 (Malme-3M) | GI50 (OVCAR-3) | GI50 (PC-3) | GI50 (BT-549) |
| --- | --- | --- | --- | --- | --- | --- | --- | --- | --- | --- | --- | --- | --- | --- | --- | --- | --- | --- | --- | --- |
| N#Cc1ccccc1NC(=O)C(=O)C(C(=O)c1ccccc1F)C1OC(=O)c2ccccc21 (stereo not drawn) | 19.9 µM (inactive) | 34.2 µM (inactive) | 30.1 | 21.9 µM (inactive) | 82 µM (inactive) | 65 µM (inactive) | 40.7 µM (inactive) | 25 µM (inactive) | 44.3 µM (inactive) | 40.1 µM (inactive) | 24.8 µM (inactive) | 89.3 µM (inactive) | 41.3 µM (inactive) | 17.1 µM (inactive) | – | – | – | – | – | – |
| CCOC(=O)C1Cc2c(cc3c4c(cccc24)N(C(C)=O)C3)N(C)C1 (stereo not drawn) | > 100 µM (inactive) | 3.67 µM (inactive) | > 100 | 6.35 µM (inactive) | 29.9 µM (inactive) | 84.9 µM (inactive) | 3.97 µM (inactive) | > 100 µM (inactive) | 4.13 µM (inactive) | 5.86 µM (inactive) | 3.18 µM (inactive) | > 100 µM (inactive) | 71.8 µM (inactive) | 41.6 µM (inactive) | > 100 µM (inactive) | 2.56 µM (inactive) | 5.18 µM (inactive) | 1.44 µM (inactive) | 4.02 µM (inactive) | – |
| C=CCCCN1C(=O)C2C3c4ccccc4C(C=O)(c4ccccc43)C2C1=O (stereo not drawn) | 14.7 µM (inactive) | 3.13 µM (inactive) | 8.41 | 6.07 µM (inactive) | – | 11.4 µM (inactive) | 13.4 µM (inactive) | 6.84 µM (inactive) | – | 14.5 µM (inactive) | – | 11.3 µM (inactive) | 18.2 µM (inactive) | 4.79 µM (inactive) | 11.4 µM (inactive) | – | 13.6 µM (inactive) | 9.02 µM (inactive) | 6.18 µM (inactive) | – |
| COCCN1C2=CCCCC2=Nc2c(N)nc(N)nc21 | > 100 µM (inactive) | > 100 µM (inactive) | > 100 | > 100 µM (inactive) | > 100 µM (inactive) | – | > 100 µM (inactive) | > 100 µM (inactive) | > 100 µM (inactive) | > 100 µM (inactive) | > 100 µM (inactive) | > 100 µM (inactive) | > 100 µM (inactive) | > 100 µM (inactive) | – | – | > 100 µM (inactive) | 38 µM (inactive) | – | – |
| Cc1ccccc1-n1c(C)nc2c1C(=O)c1ccccc1C2=O | 37.1 µM (inactive) | 35.1 µM (inactive) | 34.8 | – | 42 µM (inactive) | 27.5 µM (inactive) | 47.9 µM (inactive) | – | > 100 µM (inactive) | 67.5 µM (inactive) | 28.2 µM (inactive) | 22.1 µM (inactive) | – | 38.9 µM (inactive) | – | – | 15.3 µM (inactive) | 24.8 µM (inactive) | – | – |
| C=C[C@@H]1C(CO)=CCC2[C@H]1CCC1C(C)(C)C(=O)CC[C@]21C (stereo partly drawn) | > 100 µM (inactive) | > 100 µM (inactive) | > 100 | > 100 µM (inactive) | > 100 µM (inactive) | > 100 µM (inactive) | – | > 100 µM (inactive) | > 100 µM (inactive) | > 100 µM (inactive) | > 100 µM (inactive) | > 100 µM (inactive) | > 100 µM (inactive) | > 100 µM (inactive) | > 100 µM (inactive) | > 100 µM (inactive) | > 100 µM (inactive) | > 100 µM (inactive) | > 100 µM (inactive) | – |
| Oc1cn(-c2ccc(Cl)cc2)nc1-c1nnc(Nc2ccccc2)o1 | – | 16.1 µM (inactive) | 10.4 | – | 19.6 µM (inactive) | 34.8 µM (inactive) | 20.9 µM (inactive) | – | 16 µM (inactive) | 14.6 µM (inactive) | 15.3 µM (inactive) | 11.4 µM (inactive) | 24.3 µM (inactive) | – | 15.4 µM (inactive) | 16.8 µM (inactive) | 25.2 µM (inactive) | 31.8 µM (inactive) | – | – |
| Cc1cccc2c(NCCN(C)C)c3cccc(C(=O)NCCN(C)C)c3nc12 | < 0.0455 µM (active) | 0.0673 µM (active) | 0.14 | – | 0.578 µM (active) | 0.207 µM (active) | 0.107 µM (active) | 0.0838 µM (active) | 0.475 µM (active) | 0.316 µM (active) | 0.0649 µM (active) | 0.157 µM (active) | 0.226 µM (active) | 0.0281 µM (active) | 0.471 µM (active) | 0.176 µM (active) | 0.508 µM (active) | 0.31 µM (active) | 0.356 µM (active) | – |
| CC#CC1C2CCCC1(CSc1ccccc1)NC(=O)O2 (stereo not drawn) | > 100 µM (inactive) | > 100 µM (inactive) | > 100 | – | > 100 µM (inactive) | > 100 µM (inactive) | > 100 µM (inactive) | 63.8 µM (inactive) | > 100 µM (inactive) | > 100 µM (inactive) | > 100 µM (inactive) | > 100 µM (inactive) | > 100 µM (inactive) | > 100 µM (inactive) | – | – | > 100 µM (inactive) | > 100 µM (inactive) | – | – |
| C=C1C(=O)OC2/C=C(\C)C3OC3/C=C(/C(=O)OC)C(O)C(OC(=O)C3(C)OC3C)C12 (stereo not drawn) | 1.9 µM (inactive) | 1.11 µM (active) | 1.53 | 1.76 µM (inactive) | 1.9 µM (inactive) | 2.88 µM (inactive) | 1.25 µM (inactive) | – | 1.02 µM (active) | 15.3 µM (inactive) | 2.18 µM (inactive) | 1.31 µM (inactive) | 13.4 µM (inactive) | 0.566 µM (active) | – | – | 1.52 µM (inactive) | 2.42 µM (inactive) | – | – |
| Cc1c(C#N)c2nc3ccccc3n2c(=O)/c1=C/Nc1ccc(Cl)cc1 | > 100 µM (inactive) | 16.6 µM (inactive) | 8.65 | 30.4 µM (inactive) | 3.83 µM (inactive) | > 100 µM (inactive) | 51.3 µM (inactive) | 37.8 µM (inactive) | 11.7 µM (inactive) | 22.9 µM (inactive) | 12.1 µM (inactive) | 19.4 µM (inactive) | 14.1 µM (inactive) | > 100 µM (inactive) | – | 94.4 µM (inactive) | > 100 µM (inactive) | – | – | 22.7 µM (inactive) |
| CC1(C)[N+]([O-])=[N+]([O-])C1(Br)c1ccccc1 (stereo not drawn) | > 100 µM (inactive) | > 100 µM (inactive) | 64.6 | 48.1 µM (inactive) | > 100 µM (inactive) | 82.2 µM (inactive) | > 100 µM (inactive) | 42.7 µM (inactive) | 25.8 µM (inactive) | 65.3 µM (inactive) | > 100 µM (inactive) | > 100 µM (inactive) | > 100 µM (inactive) | 43.5 µM (inactive) | 79.1 µM (inactive) | > 100 µM (inactive) | > 100 µM (inactive) | 39.2 µM (inactive) | > 100 µM (inactive) | – |
| Clc1ccccc1/C=C/c1cscn1 | > 100 µM (inactive) | > 100 µM (inactive) | > 100 | > 100 µM (inactive) | > 100 µM (inactive) | > 100 µM (inactive) | – | > 100 µM (inactive) | > 100 µM (inactive) | > 100 µM (inactive) | > 100 µM (inactive) | – | > 100 µM (inactive) | > 100 µM (inactive) | – | – | > 100 µM (inactive) | > 100 µM (inactive) | – | – |
| C/C=C1\CNC1C(=O)O (stereo not drawn) | > 100 µM (inactive) | > 100 µM (inactive) | > 100 | > 100 µM (inactive) | – | > 100 µM (inactive) | > 100 µM (inactive) | > 100 µM (inactive) | – | > 100 µM (inactive) | > 100 µM (inactive) | > 100 µM (inactive) | > 100 µM (inactive) | – | – | > 100 µM (inactive) | > 100 µM (inactive) | > 100 µM (inactive) | > 100 µM (inactive) | > 100 µM (inactive) |
| c1cc2[se][se]c3c4cccc5[se][se]c(c(c1)c23)c54 | – | > 100 µM (inactive) | – | > 100 µM (inactive) | > 100 µM (inactive) | > 100 µM (inactive) | > 100 µM (inactive) | > 100 µM (inactive) | > 100 µM (inactive) | > 100 µM (inactive) | > 100 µM (inactive) | > 100 µM (inactive) | > 100 µM (inactive) | > 100 µM (inactive) | – | – | > 100 µM (inactive) | > 100 µM (inactive) | – | – |
| O=C(Cc1ccccc1)NN1C(=O)/C(=C\c2ccc([N+](=O)[O-])cc2)S/C1=N\c1ccccc1 | > 100 µM (inactive) | > 100 µM (inactive) | > 100 | – | > 100 µM (inactive) | > 100 µM (inactive) | 77.6 µM (inactive) | > 100 µM (inactive) | > 100 µM (inactive) | > 100 µM (inactive) | > 100 µM (inactive) | > 100 µM (inactive) | > 100 µM (inactive) | – | > 100 µM (inactive) | > 100 µM (inactive) | – | 47.8 µM (inactive) | – | – |
| C=C(C)[C@H]1CC[C@@]23O[C@@H]2[C@@H](C[C@@]2(C)CC(=O)[C@H](CC(=O)C1)O2)OC(=O)[C@@]12CC[C@H](C(=C)C)CC(=O)C[C@H]4O[C@](C)(CC4=O)C[C@@H](OC3=O)[C@@H]1O2 [SINGARDIN] | > 100 µM (inactive) | > 100 µM (inactive) | > 100 | > 100 µM (inactive) | > 100 µM (inactive) | > 100 µM (inactive) | > 100 µM (inactive) | > 100 µM (inactive) | > 100 µM (inactive) | – | > 100 µM (inactive) | 74.5 µM (inactive) | > 100 µM (inactive) | – | > 100 µM (inactive) | > 100 µM (inactive) | > 100 µM (inactive) | > 100 µM (inactive) | > 100 µM (inactive) | – |

From ChEMBL document CHEMBL1201862, “PubChem BioAssay data set” (2004)
